Assay results from publication PMC7226027, “Phosphonic Acid Analogs of Fluorophenylalanines as Inhibitors of Human and Porcine Aminopeptidases N: Validation of the Importance of the Substitution of the Aromatic Ring” (Biomolecules, 2020).
Like-named read-outs stand apart in the source and are kept apart here.

Legend:
Type in all cases: biochemical
[1] = target: T1, hAPN (recombinant human alanine aminopeptidase, EC 3.4.11.2) (Homo sapiens, UniProt P15144); experiment: fluorogenic assay, Ala-AMC hydrolysis; Ki by Lineweaver-Burk, Dixon, Cheng-Prusoff
T1 construct: gene ANPEP; commercial recombinant enzyme (R&D Systems), lyophilized powder
T1 sequence (P15144 33-967 limits assumed): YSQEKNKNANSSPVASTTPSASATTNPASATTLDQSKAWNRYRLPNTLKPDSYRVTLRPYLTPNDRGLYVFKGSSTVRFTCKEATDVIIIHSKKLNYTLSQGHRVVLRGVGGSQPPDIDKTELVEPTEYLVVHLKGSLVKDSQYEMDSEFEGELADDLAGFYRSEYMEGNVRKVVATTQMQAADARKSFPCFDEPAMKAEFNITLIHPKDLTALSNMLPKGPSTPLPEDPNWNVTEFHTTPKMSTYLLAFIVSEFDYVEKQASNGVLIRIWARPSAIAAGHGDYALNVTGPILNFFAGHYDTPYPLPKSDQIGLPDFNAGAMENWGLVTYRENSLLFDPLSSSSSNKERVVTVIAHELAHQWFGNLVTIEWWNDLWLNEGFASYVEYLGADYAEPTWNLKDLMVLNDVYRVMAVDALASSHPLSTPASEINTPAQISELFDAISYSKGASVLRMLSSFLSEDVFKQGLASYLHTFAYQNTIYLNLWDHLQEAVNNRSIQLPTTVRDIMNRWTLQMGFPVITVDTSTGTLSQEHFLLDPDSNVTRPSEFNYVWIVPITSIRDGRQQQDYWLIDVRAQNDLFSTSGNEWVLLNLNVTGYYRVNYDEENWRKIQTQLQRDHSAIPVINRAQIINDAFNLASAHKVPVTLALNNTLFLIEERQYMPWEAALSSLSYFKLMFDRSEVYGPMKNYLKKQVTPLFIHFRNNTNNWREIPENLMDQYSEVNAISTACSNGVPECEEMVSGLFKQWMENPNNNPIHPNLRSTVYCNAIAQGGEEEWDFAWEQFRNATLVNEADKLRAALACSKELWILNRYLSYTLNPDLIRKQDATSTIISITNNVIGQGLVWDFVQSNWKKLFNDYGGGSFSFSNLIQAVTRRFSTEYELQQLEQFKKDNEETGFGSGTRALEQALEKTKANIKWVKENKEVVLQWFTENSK
Source text: fluorogenic assay, Ala-AMC hydrolysis; Ki by Lineweaver-Burk, Dixon, Cheng-Prusoff on hAPN (recombinant human alanine aminopeptidase, EC 3.4.11.2)

[2] = target: T2, pAPN (porcine kidney alanine aminopeptidase, EC 3.4.11.2) (Sus scrofa, UniProt P15145); experiment: as above; details: for pAPN Ki (μM): unreliable (value above highest stated concentration, 1 mM)
T2 construct: gene ANPEP; commercial enzyme from porcine kidney (Sigma Aldrich), native purification, lyophilized powder
T2 sequence (P15145 2-963): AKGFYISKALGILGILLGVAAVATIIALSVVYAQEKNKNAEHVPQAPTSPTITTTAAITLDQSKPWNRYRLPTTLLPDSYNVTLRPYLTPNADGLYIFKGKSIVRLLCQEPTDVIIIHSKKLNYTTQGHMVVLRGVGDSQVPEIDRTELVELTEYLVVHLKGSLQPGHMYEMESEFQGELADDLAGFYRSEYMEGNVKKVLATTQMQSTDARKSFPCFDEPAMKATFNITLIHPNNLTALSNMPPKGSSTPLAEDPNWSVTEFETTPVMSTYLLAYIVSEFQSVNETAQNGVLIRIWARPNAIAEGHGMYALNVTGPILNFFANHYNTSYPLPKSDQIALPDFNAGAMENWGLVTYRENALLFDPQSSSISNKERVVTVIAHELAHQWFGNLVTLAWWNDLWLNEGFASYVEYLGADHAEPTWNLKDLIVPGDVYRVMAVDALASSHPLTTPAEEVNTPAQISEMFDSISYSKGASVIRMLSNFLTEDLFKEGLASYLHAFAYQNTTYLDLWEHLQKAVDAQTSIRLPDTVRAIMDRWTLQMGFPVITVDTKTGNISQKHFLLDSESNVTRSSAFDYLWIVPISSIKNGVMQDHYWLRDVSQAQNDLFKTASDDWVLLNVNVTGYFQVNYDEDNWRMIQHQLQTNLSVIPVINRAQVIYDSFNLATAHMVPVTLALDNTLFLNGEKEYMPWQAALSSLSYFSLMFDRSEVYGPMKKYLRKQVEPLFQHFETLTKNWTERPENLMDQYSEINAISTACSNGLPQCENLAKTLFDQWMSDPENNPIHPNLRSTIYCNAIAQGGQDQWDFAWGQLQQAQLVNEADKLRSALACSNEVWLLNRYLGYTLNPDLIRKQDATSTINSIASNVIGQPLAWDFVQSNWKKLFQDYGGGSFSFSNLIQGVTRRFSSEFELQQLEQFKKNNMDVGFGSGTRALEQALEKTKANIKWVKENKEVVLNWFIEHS
Source text: fluorogenic assay, Ala-AMC hydrolysis; Ki by Lineweaver-Burk, Dixon, Cheng-Prusoff on pAPN (porcine kidney alanine aminopeptidase, EC 3.4.11.2)

[3] = target: T2, pAPN (porcine kidney alanine aminopeptidase, EC 3.4.11.2); experiment: fluorogenic assay (AMC release); details: 50 mM Tris-HCl pH 7.20
[4] = target: T1, hAPN (recombinant human alanine aminopeptidase, EC 3.4.11.2); experiment: fluorogenic assay (AMC release); details: 50 mM Tris-HCl pH 7.00
[5] = racemate (hydrochloride), 80 µM Ala-AMC, 50 mM Tris-HCl pH 7.20, 37 °C
[6] = read-out: Inactive (no inhibition up to 1 mM)
[7] = racemate (hydrochloride), 80 µM Ala-AMC, 50 mM Tris-HCl pH 7.20, 37 °C, 0.66 nM enzyme, 30 min enzyme preincubation in buffer

Row | Compound | Ki [2] | Ki ([1]; read-out: hAPN Ki) | other results
1 | NC(Cc1ccccc1F)P(=O)(O)O (racemic) [1b, 1-Amino-2-(2-fluorophenyl)ethylphosphonic Acid] | 256 ± 19 µM | – | Ki [1]: 18.1 ± 3.7 µM
2 | NC(Cc1cccc(F)c1)P(=O)(O)O (racemic) [1c, 1-Amino-2-(3-fluorophenyl)ethylphosphonic Acid] | 26.4 ± 2 µM | – | Ki [1]: 3.39 ± 0.71 µM
3 | NC(Cc1ccc(F)cc1)P(=O)(O)O (racemic) [1d, 1-Amino-2-(4-fluorophenyl)ethylphosphonic Acid] | 41.4 ± 2.5 µM | – | Ki [1]: 4.86 ± 1.18 µM
4 | NC(Cc1ccc(F)cc1F)P(=O)(O)O (racemic) [1e, 1-Amino-2-(2,4-difluorophenyl)ethylphosphonic Acid] | 95.6 ± 9.6 µM | 13.5 ± 2.7 µM | –
5 | NC(Cc1cc(F)ccc1F)P(=O)(O)O (racemic) [1f, 1-Amino-2-(2,5-difluorophenyl)ethylphosphonic Acid] | 86.3 ± 8.2 µM | 25.9 ± 5 µM | –
6 | NC(Cc1c(F)cccc1F)P(=O)(O)O (racemic) [1g, 1-Amino-2-(2,6-difluorophenyl)ethylphosphonic Acid] | 725 ± 121 µM | 327 ± 98 µM | –
7 | NC(Cc1ccc(F)c(F)c1)P(=O)(O)O (racemic) [1h, 1-Amino-2-(3,4-difluorophenyl)ethylphosphonic Acid] | 15.7 ± 2.5 µM | 1.71 ± 0.52 µM | –
8 | NC(Cc1cc(F)cc(F)c1)P(=O)(O)O (racemic) [1i, 1-Amino-2-(3,5-difluorophenyl)ethylphosphonic Acid] | 8.09 ± 1.1 µM | 0.529 ± 0.088 µM | –
9 | NC(Cc1cc(F)c(F)cc1F)P(=O)(O)O (racemic) [1j, 1-Amino-2-(2,4,5-trifluorophenyl)ethylphosphonic Acid] | 78.5 ± 3.9 µM | 15 ± 2.2 µM | –
10 | NC(Cc1c(F)cc(F)cc1F)P(=O)(O)O (racemic) [1k, 1-Amino-2-(2,4,6-trifluorophenyl)ethylphosphonic Acid] | 969 ± 158 µM | 225 ± 47 µM | –
11 | NC(Cc1cc(F)c(F)c(F)c1)P(=O)(O)O (racemic) [1l, 1-Amino-2-(3,4,5-trifluorophenyl)ethylphosphonic Acid] | 7.1 ± 0.93 µM | 0.793 ± 0.138 µM | –
12 | NC(Cc1c(F)c(F)c(F)c(F)c1F)P(=O)(O)O (racemic) [1m, 1-Amino-2-(2,3,4,5,6-pentafluorophenyl)ethylphosphonic Acid] | 808 ± 132 µM | 139 ± 71 µM | –
13 | NC(Cc1cccc(Cl)c1F)P(=O)(O)O (racemic) [1n, 1-Amino-2-(3-chloro-2-fluorophenyl)ethylphosphonic Acid] | 85.1 ± 9.1 µM | 18.5 ± 7.1 µM | –
14 | NC(Cc1ccc(Cl)cc1F)P(=O)(O)O (racemic) [1o, 1-Amino-2-(4-chloro-2-fluorophenyl)ethylphosphonic Acid] | 160 ± 11 µM | 17.8 ± 2.09 µM | –
15 | NC(Cc1cc(Cl)ccc1F)P(=O)(O)O (racemic) [1p, 1-Amino-2-(5-chloro-2-fluorophenyl)ethylphosphonic Acid] | 47.2 ± 1.4 µM | 4.3 ± 0.44 µM | –
16 | NC(Cc1c(F)cccc1Cl)P(=O)(O)O (racemic) [1r, 1-Amino-2-(2-chloro-6-fluorophenyl)ethylphosphonic Acid] | – | 360 ± 125 µM | pAPN Ki (μM) [2, 5]: 2557 ± 729 µM
17 | NC(Cc1ccc(Cl)c(F)c1)P(=O)(O)O (racemic) [1s, 1-Amino-2-(4-chloro-3-fluorophenyl)ethylphosphonic Acid] | 14.8 ± 0.9 µM | 1.01 ± 0.16 µM | –
18 | NC(Cc1ccc(F)c(Cl)c1)P(=O)(O)O (racemic) [1t, 1-Amino-2-(3-chloro-4-fluorophenyl)ethylphosphonic Acid] | 6.93 ± 0.78 µM | 0.542 ± 0.152 µM | –
19 | NC(Cc1ccc(F)cc1Cl)P(=O)(O)O (racemic) [1u, 1-Amino-2-(2-chloro-4-fluorophenyl)ethylphosphonic Acid] | 106 ± 12 µM | 29.1 ± 10.3 µM | –
20 | NC(Cc1ccccc1C(F)(F)F)P(=O)(O)O (racemic) [1v, 1-Amino-2-(2-trifluoromethylphenyl)ethylphosphonic Acid] | – | – | Ki [1, 6]: > 1000 µM; pAPN Ki (μM) [2, 5]: 2335 ± 617 µM
21 | NC(Cc1cccc(C(F)(F)F)c1)P(=O)(O)O (racemic) [1w, 1-Amino-2-(3-trifluoromethylphenyl)ethylphosphonic Acid] | 66 ± 7.3 µM | 2.53 ± 0.4 µM | –
22 | NC(Cc1ccc(C(F)(F)F)cc1)P(=O)(O)O (racemic) [1x, 1-Amino-2-(4-trifluoromethylphenyl)ethylphosphonic Acid] | 257 ± 27 µM | 24.9 ± 3 µM | –
23 | NC(Cc1cc(F)ccc1C(F)(F)F)P(=O)(O)O (racemic) [1y, 1-Amino-2-(5-fluoro-2-trifluoromethylphenyl)ethylphosphonic Acid] | – | – | Ki [1, 6]: > 1000 µM; Inactive (no inhibition up to 1 mM) [2, 7]: > 1 mM
24 | NC(Cc1ccc(F)c(C(F)(F)F)c1)P(=O)(O)O (racemic) [1z, 1-Amino-2-(4-fluoro-3-trifluoromethylphenyl)ethylphosphonic Acid] | 67.7 ± 5.6 µM | 3.55 ± 0.43 µM | –
25 | NC(CC(F)(F)F)P(=O)(O)O (racemic) [compound 8, (1-Amino-3,3,3-trifluoropropyl)phosphonic acid] | 755 ± 230 µM | – | Ki [1]: 84.7 ± 15.8 µM
26 | NC(Cc1ccccc1)P(=O)(O)O (stereo not drawn) [1a, 1-Amino-2-phenylethylphosphonic Acid] | – | – | Ki ([1]; racemate (hydrochloride), 50 µM Ala-AMC, 50 mM Tris-HCl pH 7.00, 37 °C, 0.66 nM enzyme, 30 min enzyme preincubation in buffer, read-out: hAPN Ki): 15.5 ± 1.7 µM; Ki [2, 7]: 73.3 ± 7.6 µM
27 | Cc1cc(=O)oc2cc(NC(=O)[C@H](C)N)ccc12 [Ala-AMC, L-alanine-4-methylcoumaryl-7-amide] | – | – | Km [3]: 90 µM; Km [4]: 73 µM
